Like-named read-outs stand apart in the source and are kept apart here.
Experiments:
[1] = system: DMBA/TPA-induced skin papillomas accelerated by PLX4032; details: DMBA/TPA + PLX4032 20 mg/kg, with DET or DETD-35 10 mg/kg i.p. twice per week
Description: Dorsal skin of six weeks old female FVB/N mice were shaved and treated with topical application of DMBA (25 μg in 100 μL acetone). One week after DMBA treatment, the same skin area were treated topically twice weekly with 12-O-tetradecanoylphorbol-13-acetate (TPA) (4 μg in 100 μL acetone). The area was regularly shaved and tumor formation was assessed twice weekly, and tumors were defined as raised lesions of a minimum diameter of 1 mm.

B16-F10 (NRAS mutation) = assay: MTT cell viability assay, B16-F10 melanoma; type: cell-based; details: Mus musculus, B16-F10, 24 h
Summary of the method: (§1)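 MTT readout at OD570, normalised to 0.5% DMSO vehicle-treated cells set as 100% viable. Compound exposure lasted 24 h to 72 h after overnight seeding of 2×10^3 to 1×10^4 cells/well.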

[2] = system: RAW264.7 (normal macrophage); assay: MTT cell viability assay, RAW264.7 macrophages; type: cell-based, mouse; details: for IC50: Mus musculus, RAW264.7, 24 h
Summary of the method: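 RAW264.7 macrophages (2×10^5 cells/well) pretreated with compounds 1 h, then incubated 24 h with or without 100 ng/μL LPS. Viability by MTT colorimetric assay run in parallel with Griess nitrite measurement.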

[3] = system: Melanocyte (Normal cells); assay: MTT cell viability assay, normal melanocytes; type: cell-based, human; details: 24 h; for IC50: Homo sapiens, Melanocyte
Summary of the method: as §1

PC3 (Prostate) = assay: MTT cell viability assay, PC3; type: cell-based; details: 24 h
Description: (§2) Normal or cancer cells (2×10^3 to 1×10^4 cells/well) were seeded in 96-well plate for overnight and treated with different compounds for 24 h to 72 h. Cells growth were determined by MTT-based colorimetric assays according to. Viability of the test cells treated with vehicle (0.5% DMSO) only was defined as 100% viable. Survival of cells after treatment with DETDs was calculated using the following formula: viable cell number (%)=OD570 (treated cell culture)/OD570 (vehicle control)×100.
(§3) Based on toxicity results of DET and DETDs on different breast cancer and melanoma cell lines, we selected DETD-6, -32, -35 and -39, under the consideration of structure activity relationship for evaluating their suppression effect against other cancer types of cell line with indicated tumor origin in Table 5. […] The cells were treated with compounds for 24 h and then subjected to MTT assays.

A2058 (BRAF mutation) = assay: MTT cell viability assay, A2058 melanoma; type: cell-based, human
Summary of the method: as §1

[4] = system: PC6 lung cancer cell line; assay: MTT cell viability assay, PC6; type: cell-based; details: 24 h
Description: as §2, §3

[5] = system: NES-SA uterus cancer cell line; assay: MTT cell viability assay, NES-SA; type: cell-based; details: 24 h
Description: as §2, §3

A375 (BRAF mutation) = assay: MTT cell viability assay, A375 melanoma; type: cell-based, human; details: MTT
Summary of the method: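 A375 cells were seeded at 2×10^3 to 1×10^4 per well overnight and then exposed to compounds for 24 h to 72 h. Viability was measured by MTT absorbance at OD570 relative to 0.5% DMSO vehicle (100%), and IC50 was derived from it. Combination with PLX4032 was scored by combination index.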

[6] = system: M10 normal mammary epithelial cells; assay: MTT cell viability assay, M10 normal cells; type: cell-based, human; details: 24 h; for IC50: Homo sapiens, Epithelial cell
Summary of the method: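 MTT readout at OD570; % viable = treated/vehicle ×100, vehicle (0.5% DMSO) set as 100%. Seeding 2×10^3–1×10^4 cells/well overnight, compound exposure 24 h to 72 h.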

[7] = system: A498 kidney cancer cell line; assay: MTT cell viability assay, A498; type: cell-based; details: Homo sapiens, 24 h
Description: as §2, §3

[8] = system: A375-R PLX4032-resistant melanoma tumor; assay: A375-R melanoma xenograft model in NOD/SCID mice; type: in vivo, mouse; details: 20 mg/kg i.p. alone
Description: A375 and A375-R melanoma cells (3×10^6) were injected subcutaneously to the flanks of the six weeks old NOD/SCID mice. One week after the inoculation, the mice were randomized into treated groups (n=8 per group) and the treatments were started. Body weight and tumor volume of the mice were recorded every three days using formula a×b^2×0.5, where a and b represented the larger and smaller tumor diameters.
To study whether or not DETD-35 could overcome acquired resistance to BRAF inhibitor, we generated A375 cell line resistant to PLX4032 (designated A375-R) as described above. We then conducted A375-R orthotopic xenograft study.

MDA-MB-231 cells = assay: Combination with gluthathione biosynthesis blockers (BSO, sulfasalazine), MTT; details: for cell viability after pretreatment with BSO or sulfasalazine: 30 h pretreatment, then DET 12 μM or DETD-35 3 μM for 24 h; for combination effect with BSO: BSO at 0.5 μM, 3 μM, and above; for combination effect with sulfasalazine: sulfasalazine at 25 μM, 62 μM, and above
Description: Briefly, cells (5×10^3 cells/well) were seeded in 96-well plates and treated with BSO at concentrations 100 μM, 45 μM, 18 μM, 7.2 μM, 2.8 μM, 1.15 μM, 461 nM, 184 nM, 74 nM and 29 nM, and sulfasalazine at concentrations 62.75 μM, 25.10 μM, 10 μM, 4 μM, 1.6 μM, 642 nM, 257 nM, 102 nM, 41 nM and 16.4 nM for 30 h, and then 12 μM DET or 3 μM DETD-35 were added in the cultural medium to treat the cells for another 24 h. Cell proliferation was measured by MIT assay.

U937 lymphoma line = assay: MTT cell viability assay, U937; type: cell-based; details: Homo sapiens, U-937, 24 h
Description: as §2, §3

[9] = system: LPS-induced nitric oxide (NO) production in RAW 264.7 cells; assay: Nitric oxide production in LPS-stimulated macrophages (Griess); type: cell-based, mouse; details: for IC50: Mus musculus, LPS-stimulated RAW264.7, nitrite 24 h after LPS
Summary of the method: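 RAW 264.7 macrophages (2×10^5 cells/well) were pretreated with compound for 1 h and then stimulated with 100 ng/μL LPS for 24 h. NO was measured as nitrite in the medium by the Griess reaction. Viability was checked in parallel by MTT.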

[10] = 24 h, read-out: IC50 on cell viability, B16-F10 (NRAS mutation)
[11] = Table 5, 24 h, read-out: IC50 viability B16-F10 (mouse) (Skin)
[12] = Homo sapiens, A-375, 24 h, 24 h, read-out: IC50 on cell viability, A375 (BRAF mutation)

Row | SMILES | papillomas size in average [1] [mm^3] | total papillomas number [1] | IC50 (B16-F10 (NRAS mutation); [10]) [µM] | IC50 (B16-F10 (NRAS mutation); [11]) [µM] | IC50 [2] [µM] | IC50 [3] [µM] | IC50 (PC3 (Prostate)) [µM] | IC50 (A2058 (BRAF mutation); Homo sapiens, A2058, 24 h) [µM] | IC50 [4] [µM] | IC50 [5] [µM] | IC50 (A375 (BRAF mutation); [12]) [µM] | IC50 [6] [µM] | IC50 [7] [µM] | reduction of tumor mass [8] [%] | cell viability after pretreatment with BSO or sulfasalazine (MDA-MB-231 cells) | combination effect with BSO (MDA-MB-231 cells) | combination effect with sulfasalazine (MDA-MB-231 cells) | IC50 (U937 lymphoma line) [µM] | IC50 [9] [µM] | other results
1 | C=C1C(=O)O[C@H]2CC3=C[C@@H](C/C(C)=C/[C@@H](OC(=O)Cc4cccc5ccccc45)[C@H]12)OC3=O [DETD-35] | 8.9 | 4.8 | 2.7 | 2.7 | > 10 | > 10 | 5.5 | 3.1 | 0.34 | 0.34 | 2.5 | > 7.5 | 0.79 | 46.9 | 1% or undetectable | synergistic effects | synergistic effects | 0.18 | 1.5 | IC50 on cell viability, RAW264.7 (normal macrophage) ([2]; 24 h): no detected toxicity; IC50 on cell viability, Melanocyte (Normal cells) [3]: no detected toxicity; IC50 (A375 (BRAF mutation); 72 h, read-out: IC50 on A375 cells): 0.8 µM; IC50 (A375 (BRAF mutation); Homo sapiens, A-375, 72 h, 72 h, read-out: IC50 on A375 cells): 0.85 µM; IC50 on cell viability, M10 (normal) [6]: no detected toxicity; viability at 3 µM (MDA-MB-231 cells; Homo sapiens, MDA-MB-231, 24 h, read-out: cell viability, compound alone): ~90%; fold decrease in IC50 of NO production vs DET [9]: 2 fold
2 | C=C(C)C(=O)O[C@H]1CC2=C[C@@H](C/C(C)=C/[C@H]3OC(=O)C(=C)[C@H]13)OC2=O [DET, deoxyelephantopin, reference compound] | 26.3 | 11.7 | ~6 | 6 | > 10 | > 10 | 12.8 | > 10 | 0.4 | 0.9 | ~6 | > 7.5 | 2.82 | 32 | 1% or undetectable | synergistic effects | synergistic effects | 0.48 | 2.9 | IC50 (A2058 (BRAF mutation); 24 h): > 10 µM; IC50 (A375 (BRAF mutation); 24 h, read-out: IC50 on cell viability, A375 (BRAF mutation)): 5.9 µM; cell viability, compound alone (MDA-MB-231 cells; DET 12 μM, DETD-35 3 μM, 24 h): around 70%

— patent US10238631B2, “Sesquiterpene derivatives and their use in inflammation or cancer treatment” (Academia Sinica, priority 2014, dated 2019)
